Results taken from paper PMC6220303 (EMBO Molecular Medicine, 2018).
Entries after “also recorded” stand apart in the source; their conditions may differ. Like-named read-outs stand apart in the source and are kept apart here.

How the values were obtained:
logD determination = assay type: physicochemical; conditions: partition coefficient octanol/buffer pH 6.8
Protocol: (§1) Cellular Aβ release assays were done in CHO cells stably transfected with human wild‐type and human APP were done as described (Neumann et al, 2015). Determinations of logD, pKa, and binding to brain homogenates were done internally at Novartis, Basel. Plasma protein binding was determined by equilibrium dialysis using diluted plasma from the corresponding species. MDR‐1‐MDCK cells were obtained from Prof. A. Berns, Netherlands Cancer Institute, Amsterdam NL, and bi‐directional transport measurements were done as described (Rueeger et al, 2011). Receptor binding assays were done against an internal receptor panel and externally at Ricerca Biosciences, Peitou, Taiwan. In vitro binding and cellular patch clamp assays for hERG were done at Preclinical Safety, Novartis, Basel.

[1] = tested on: healthy participants ≥ 60 years; test: Adverse events after single dose (Appendix Table S6); assay type: in vivo, human
Description: For further details, see the Appendix Table S10 in Appendix and the accompanying clinical protocols synopsis (Appendix Table S11).
Appendix Table S3. Overview of completed clinical studies with CNP520
Study description Population No. of Participants Dose/Frequency […]
First-in-human, randomized, 18-55 yrs 38 / 14 Single dose (10, 30, 90, […]
controlled, single and multiple CNP520 vs placebo) ascending oral dose study to Single dose (10, 90, 300,

[2] = target: Monoamine transporter VMAT2 (Rattus norvegicus, UniProt Q01827); test: Functional assay; assay type: biochemical; conditions: read-out: Inhibition at 10 µM
Protocol: as §1

H Nav 1.2 = H Nav 1.2 (Homo sapiens, UniProt Q99250); test: Functional assay; assay type: biochemical; conditions: read-out: Inhibition at 10 µM
Protocol: as §1

CSF Aβ = test: Human CSF Aβ after 2-week once-daily dosing; assay type: in vivo; conditions: 2 weeks, 24 h after last dose, mean ± SEM
Protocol: (A) Changes in Aβ40 relative to baseline values. (B) Changes in sAPPβ relative to baseline values.
CSF was sampled by single lumbar punctures at baseline and 24 h after the last dose, and the change in Aβ concentrations from baseline to end of treatment was determined.
Human CSF was collected from an indwelling spinal catheter inserted into the lower spinal canal (in the single ascending dose (SAD) PD first in human (FIH) study) or by a lumbar puncture (in the multiple ascending dose (MAD) PD Phase I study and Phase IIa study), and by trained personnel at the site and as per their standard operating procedure (SOP). CSF Aβ38, Aβ40, Aβ42, sAPPα, and sAPPβ were quantified in human CSF with 0.2% (v/v) Tween®‐20 using validated sandwich‐based multiplexed electrochemiluminescence methods (MesoScale Discovery, […], MD, USA).

dogs = test: Cardiovascular safety pharmacology in dogs; assay type: in vivo, dog
rats = test: Long-term toxicology studies in rats; assay type: in vivo, rat
Protocol: (§2) In vivo animal toxicity studies were performed according to ICH guidance for industry M3(R2) and conformed to the Institutional Animal Care and Use Guidelines for the contract laboratory and sponsor. […] Recovery was assessed after a 12‐week treatment‐free period. Beagle dogs from Marshall BKU UK, 11 months of age, were given 0 (vehicle), 5, 15, or 30 mg/kg/day for 39 weeks. Vehicle consisted of 0.5% (w/v) methylcellulose (1,500 cPS) in 0.1% (v/v) polysorbate 80 (Tween®‐80) in reverse osmosis water. At necropsy, tissues were immersion fixed in 10% neutral‐buffered formalin or modified Davidson's solution and then processed by routine methods to paraffin block and hematoxylin–eosin (H&E)‐stained histologic slides.

[3] = tested on: Imidazoline I2 receptor central; test: Receptor panel binding; parameters: species or system Rat
Protocol: as §1

[4] = tested on: Calcium channel L-type, phenylalkylamine site; test: Receptor panel binding; parameters: species or system Rat
Protocol: as §1

[5] = tested on: Sodium channel, binding site 2; test: Receptor panel binding; parameters: species or system Rat
Protocol: as §1

[6] = tested on: CHO cells (wild‐type APP); test: Cellular Aβ40 release assay; assay type: cell-based; conditions: Cricetulus griseus, inhibition of Aβ40 release, six batches, each in triplicate
Protocol: as §1

[7] = tested on: CHO cells (“Swedish” APP); test: Cellular Aβ40 release assay; assay type: cell-based; conditions: Cricetulus griseus, inhibition of Aβ40 release, three batches, triplicates
Protocol: as §1

pKa determination = assay type: physicochemical; conditions: cyclic amidine
Protocol: as §1

Lipoxygenase 5-LO = Lipoxygenase 5-LO (Homo sapiens, UniProt P09917); test: Receptor panel; assay type: biochemical; conditions: read-out: Inhibition at 10 µM
Protocol: as §1

[8] = Animal toxicology studies, any species; assay type: in vivo
Protocol: as §2

Aβ40 and Aβ42 in dog CSF = Aβ40 and Aβ42 in dog CSF after single oral dose, PK/PD modeling; assay type: in vivo; conditions: Canis lupus familiaris
Protocol: Therefore, we measured Aβ40 in rat brain tissue 4 h after oral administration over a range of doses. […] In addition, the effect‐over‐time curves for brain and CSF almost completely superimposed, showing that Aβ pharmacodynamics in CSF mirrors very well that in brain tissue.
Electrochemiluminescence immunoassays (Mesoscale Diagnostics, Rockville, MD, USA) were used to determine Aβ38, Aβ40, Aβ42, sAPPα, and sAPPβ. For studies in normal mice and rats, the endogenous Aβ40 was extracted from the brain homogenate with 1% Triton X‐100, and the 4G8‐based assay kit was used for quantification according to the manufacturer's instructions. CSF was collected from the cisterna magna and also analyzed using the 4G8 kit. For studies in dogs, CSF was collected via a ventricular port, and the 6E10‐based Mesoscale Diagnostics kit for Aβ was used. For studies in APP23 mice, Aβ40 and Aβ42 were determined after extraction with 70% formic acid and subsequent neutralization.

Chain of Lipoxygenase 5-LO (P09917 whole entry): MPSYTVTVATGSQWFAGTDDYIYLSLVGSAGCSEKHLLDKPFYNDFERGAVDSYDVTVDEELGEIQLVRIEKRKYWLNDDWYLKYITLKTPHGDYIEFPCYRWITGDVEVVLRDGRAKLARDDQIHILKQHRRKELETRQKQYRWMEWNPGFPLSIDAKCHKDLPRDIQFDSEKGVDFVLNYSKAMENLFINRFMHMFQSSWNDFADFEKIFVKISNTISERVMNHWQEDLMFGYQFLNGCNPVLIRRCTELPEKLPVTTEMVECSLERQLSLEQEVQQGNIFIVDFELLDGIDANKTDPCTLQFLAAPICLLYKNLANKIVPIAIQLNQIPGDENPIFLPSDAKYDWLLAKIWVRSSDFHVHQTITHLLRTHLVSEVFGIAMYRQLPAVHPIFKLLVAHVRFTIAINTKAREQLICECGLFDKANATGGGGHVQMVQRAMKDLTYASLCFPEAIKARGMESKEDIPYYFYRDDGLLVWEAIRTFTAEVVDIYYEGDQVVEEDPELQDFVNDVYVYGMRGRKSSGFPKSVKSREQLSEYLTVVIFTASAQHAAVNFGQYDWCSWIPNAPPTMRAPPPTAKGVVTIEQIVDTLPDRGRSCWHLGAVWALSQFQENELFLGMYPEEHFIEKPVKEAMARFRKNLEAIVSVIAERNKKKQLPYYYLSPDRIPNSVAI
Chain of H Nav 1.2 (Q99250 whole entry): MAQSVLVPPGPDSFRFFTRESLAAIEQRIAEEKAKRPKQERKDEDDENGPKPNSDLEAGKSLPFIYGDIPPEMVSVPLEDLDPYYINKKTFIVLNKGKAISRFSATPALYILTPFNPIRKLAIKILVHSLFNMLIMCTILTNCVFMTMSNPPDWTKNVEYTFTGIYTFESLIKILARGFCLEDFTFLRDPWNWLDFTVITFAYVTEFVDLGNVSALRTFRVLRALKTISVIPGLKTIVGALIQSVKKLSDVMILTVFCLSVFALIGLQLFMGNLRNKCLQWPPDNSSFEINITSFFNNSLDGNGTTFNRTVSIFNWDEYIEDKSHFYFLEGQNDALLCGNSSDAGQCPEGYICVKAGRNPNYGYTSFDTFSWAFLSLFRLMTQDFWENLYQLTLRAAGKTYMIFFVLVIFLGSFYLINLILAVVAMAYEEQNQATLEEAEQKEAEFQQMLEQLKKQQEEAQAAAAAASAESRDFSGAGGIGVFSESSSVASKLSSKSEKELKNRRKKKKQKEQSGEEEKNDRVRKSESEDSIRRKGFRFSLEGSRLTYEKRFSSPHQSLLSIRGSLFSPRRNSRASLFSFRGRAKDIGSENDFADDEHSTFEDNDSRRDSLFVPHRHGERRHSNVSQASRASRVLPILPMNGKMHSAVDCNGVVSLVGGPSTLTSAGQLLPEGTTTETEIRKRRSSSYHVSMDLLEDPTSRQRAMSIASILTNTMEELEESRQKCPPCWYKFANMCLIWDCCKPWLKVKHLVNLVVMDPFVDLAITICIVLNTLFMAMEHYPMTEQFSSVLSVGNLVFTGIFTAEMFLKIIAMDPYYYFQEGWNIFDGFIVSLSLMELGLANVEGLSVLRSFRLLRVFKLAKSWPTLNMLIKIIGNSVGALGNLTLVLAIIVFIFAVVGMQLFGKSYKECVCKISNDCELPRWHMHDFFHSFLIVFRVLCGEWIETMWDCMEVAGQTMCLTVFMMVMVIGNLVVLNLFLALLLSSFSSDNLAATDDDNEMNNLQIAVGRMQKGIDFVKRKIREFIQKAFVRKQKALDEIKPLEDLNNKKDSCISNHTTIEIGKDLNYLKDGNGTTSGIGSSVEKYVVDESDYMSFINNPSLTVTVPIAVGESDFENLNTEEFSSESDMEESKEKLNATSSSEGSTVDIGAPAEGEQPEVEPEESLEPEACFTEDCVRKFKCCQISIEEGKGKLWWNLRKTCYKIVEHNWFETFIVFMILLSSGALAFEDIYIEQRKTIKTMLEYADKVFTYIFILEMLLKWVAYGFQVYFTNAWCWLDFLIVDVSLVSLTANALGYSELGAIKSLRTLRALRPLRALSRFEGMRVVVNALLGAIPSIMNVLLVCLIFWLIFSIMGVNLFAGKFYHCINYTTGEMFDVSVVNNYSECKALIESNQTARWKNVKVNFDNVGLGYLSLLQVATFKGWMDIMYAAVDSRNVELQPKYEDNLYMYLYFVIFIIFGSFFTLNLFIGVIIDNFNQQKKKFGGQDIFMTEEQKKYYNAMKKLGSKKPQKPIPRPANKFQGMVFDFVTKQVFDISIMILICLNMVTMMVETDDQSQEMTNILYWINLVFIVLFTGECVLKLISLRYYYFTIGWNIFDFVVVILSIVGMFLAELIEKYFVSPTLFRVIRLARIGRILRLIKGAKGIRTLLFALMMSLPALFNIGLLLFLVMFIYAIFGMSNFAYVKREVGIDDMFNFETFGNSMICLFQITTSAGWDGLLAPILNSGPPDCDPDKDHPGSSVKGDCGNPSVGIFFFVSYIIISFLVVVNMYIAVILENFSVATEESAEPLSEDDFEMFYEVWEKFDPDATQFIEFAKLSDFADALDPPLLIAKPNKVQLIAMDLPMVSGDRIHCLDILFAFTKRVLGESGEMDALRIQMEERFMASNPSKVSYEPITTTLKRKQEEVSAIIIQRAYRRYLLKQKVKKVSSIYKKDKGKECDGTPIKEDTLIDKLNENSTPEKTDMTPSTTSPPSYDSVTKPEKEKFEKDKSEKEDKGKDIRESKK
Chain of Monoamine transporter VMAT2 (Q01827 whole entry): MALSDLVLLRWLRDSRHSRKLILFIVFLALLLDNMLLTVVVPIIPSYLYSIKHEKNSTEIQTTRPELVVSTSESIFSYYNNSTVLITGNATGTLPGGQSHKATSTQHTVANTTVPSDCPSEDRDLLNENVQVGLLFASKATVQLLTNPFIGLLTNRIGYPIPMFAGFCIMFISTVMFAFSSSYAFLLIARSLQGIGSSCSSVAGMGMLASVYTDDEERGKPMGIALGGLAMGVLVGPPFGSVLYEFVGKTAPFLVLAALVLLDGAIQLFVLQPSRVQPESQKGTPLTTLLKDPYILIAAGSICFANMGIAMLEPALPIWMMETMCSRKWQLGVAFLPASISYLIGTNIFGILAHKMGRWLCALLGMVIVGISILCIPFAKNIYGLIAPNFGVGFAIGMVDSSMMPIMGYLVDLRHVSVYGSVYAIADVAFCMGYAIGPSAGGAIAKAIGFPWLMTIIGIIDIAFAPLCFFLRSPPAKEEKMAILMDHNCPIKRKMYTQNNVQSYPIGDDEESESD

SMILES: C[C@@]1(c2nc(NC(=O)c3ncc(C(F)(F)F)cc3Cl)ccc2F)CO[C@@](C)(C(F)(F)F)C(N)=N1 [CNP520]
- logD (logD determination): 3.5
- AE incidence: Blood and lymphatic system disorders ([1]; single dose 300 mg, N = 10): 1 (10.0) n (%)
- AE incidence: Cardiac disorders ([1]; single dose 300 mg, N = 10): 1 (10.0) n (%)
- AE incidence: Gastrointestinal disorders ([1]; single dose 300 mg, N = 10): 4 (40.0) n (%)
- AE incidence: General disorders and administration site conditions ([1]; single dose 300 mg, N = 10): 3 (30.0) n (%)
- AE incidence: Nervous system disorders ([1]; single dose 300 mg, N = 10): 4 (40.0) n (%)
- AE incidence: Renal and urinary disorders ([1]; single dose 300 mg, N = 10): 0 (0.0) n (%)
- AE incidence: Respiratory, thoracic and mediastinal disorders ([1]; single dose 300 mg, N = 10): 2 (20.0) n (%)
- AE incidence: Skin and subcutaneous tissue disorders ([1]; single dose 300 mg, N = 10): 3 (30.0) n (%)
- Participants with at least one AE ([1]; single dose 300 mg, N = 10): 10 (100.0) n (%)
- AE incidence: Blood and lymphatic system disorders ([1]; single dose 750 mg, N = 11): 0 (0.0) n (%)
- AE incidence: Cardiac disorders ([1]; single dose 750 mg, N = 11): 0 (0.0) n (%)
- AE incidence: Gastrointestinal disorders ([1]; single dose 750 mg, N = 11): 3 (27.3) n (%)
- AE incidence: General disorders and administration site conditions ([1]; single dose 750 mg, N = 11): 3 (27.3) n (%)
- AE incidence: Nervous system disorders ([1]; single dose 750 mg, N = 11): 7 (63.6) n (%)
- AE incidence: Renal and urinary disorders ([1]; single dose 750 mg, N = 11): 1 (9.1) n (%)
- AE incidence: Respiratory, thoracic and mediastinal disorders ([1]; single dose 750 mg, N = 11): 0 (0.0) n (%)
- AE incidence: Skin and subcutaneous tissue disorders ([1]; single dose 750 mg, N = 11): 1 (9.1) n (%)
- Participants with at least one AE ([1]; single dose 750 mg, N = 11): 9 (81.8) n (%)
- inhibition at 10 µM [2]: 80%
- inhibition at 10 µM (H Nav 1.2): 23.6%
- Aβ reduction in CSF from baseline to end of treatment (CSF Aβ; 10 mg daily dose): 59.8 ± 9.88%
- Aβ reduction in CSF from baseline to end of treatment (CSF Aβ; 300 mg daily dose): 93.9 ± 2.09%
- free plasma C max (dogs; 200 mg/kg): 230 nM
- effect on heart rate, ECG morphology, blood pressure (dogs; doses up to 200 mg/kg, and repeat dose toxicology studies (2, 4, 13, 39 weeks)): no effect on heart rate, ECG morphology, or blood pressure
- dose with delayed ovulation and slightly reduced fecundity and fertility indices (rats; female rats): ≥ 30 mg/kg/day
- safety margin: exposure at NOAEL vs exposure at 85 mg in Phase IIa (rats; female rats): ≥ 7 fold
- fecundity and fertility indices (rats; female rats at ≥ 30 mg/kg/day, 90% in control animals): 74%
- safety margin: exposure at NOAEL vs exposure at 85 mg in Phase IIa (rats; male rats): ≥ 5 fold
- dose with adverse (CNS/clinical) effects (rats; male rats, long-term toxicology): ≥ 500 mg/kg/day
- inhibition at 10 µM [3]: 61%
- inhibition at 10 µM [4]: 78%
- inhibition at 10 µM [5]: 104%
- IC50 [6]: 2.8 ± 0.2 nM
- IC50 [7]: 44 ± 0.4 nM
- pKa (pKa determination): 7.2
- inhibition at 10 µM (Lipoxygenase 5-LO): 66%
- morphological changes in CNS, peripheral nervous system, liver, endocrine pancreas, retina, skin ([8]; any species): No morphological changes were identified
- depigmentation in long-term animal toxicology studies ([8]; including 9 months dosing in dogs): no signs of depigmentation; also recorded: did not result in hair depigmentation
- retinal degeneration ([8]; long-term toxicological studies in rats and dogs): no retinal degeneration
- IC50 (Aβ40 and Aβ42 in dog CSF; read-out: IC50 in vivo (free ED50), unbound CNP520 in dog blood, PK/PD modeling estimate): 3.3 ± 0.03 nM
- IC50 (Aβ40 and Aβ42 in dog CSF; read-out: IC50 in vivo, total CNP520 in dog blood, PK/PD modeling estimate): 103 ± 12.3 nM
